# Data from ChEMBL document CHEMBL1145498, “A systematic interaction map of validated kinase inhibitors with Ser/Thr kinases” (Proc Natl Acad Sci U S A, 2007).
# Biological target: Calcium/calmodulin-dependent protein kinase type 1D (Homo sapiens) (UniProt Q8IU85)
# Sequence (Q8IU85 whole entry, looked up): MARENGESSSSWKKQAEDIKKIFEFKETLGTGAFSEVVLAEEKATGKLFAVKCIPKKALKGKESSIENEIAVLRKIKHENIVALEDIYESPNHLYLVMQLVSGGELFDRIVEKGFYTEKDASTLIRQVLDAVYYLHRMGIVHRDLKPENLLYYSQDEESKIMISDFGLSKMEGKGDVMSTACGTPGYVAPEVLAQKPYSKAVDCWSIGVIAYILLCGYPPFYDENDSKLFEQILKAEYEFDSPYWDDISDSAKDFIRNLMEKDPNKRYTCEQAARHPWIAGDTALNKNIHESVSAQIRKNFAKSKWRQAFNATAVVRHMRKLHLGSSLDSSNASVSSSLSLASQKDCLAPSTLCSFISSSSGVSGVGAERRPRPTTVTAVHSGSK
row,ΔTm,SMILES
1,0 °C,CCN1/C(=C/C(C)=O)Sc2ccc(OC)cc21
2,1 °C,O=C1NC(=O)c2c1c1c3ccccc3[nH]c1n1cncc21 [ISOGRANULATIMIDE]
3,0.8 °C,NS(=O)(=O)c1ccc(Nc2nc(OCC3CCCCC3)c3nc[nH]c3n2)cc1

# Biological target: Cyclin-dependent kinase 6 (Homo sapiens) (UniProt Q00534)
# Sequence (Q00534 whole entry): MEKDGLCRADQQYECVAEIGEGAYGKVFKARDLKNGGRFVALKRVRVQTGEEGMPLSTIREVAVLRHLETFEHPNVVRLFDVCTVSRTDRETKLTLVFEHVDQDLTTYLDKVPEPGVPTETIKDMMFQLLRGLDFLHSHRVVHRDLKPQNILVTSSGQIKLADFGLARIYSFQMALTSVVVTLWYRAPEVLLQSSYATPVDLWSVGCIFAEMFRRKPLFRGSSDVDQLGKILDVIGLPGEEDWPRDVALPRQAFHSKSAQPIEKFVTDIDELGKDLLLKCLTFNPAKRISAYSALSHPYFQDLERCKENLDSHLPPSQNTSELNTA
row,ΔTm,SMILES
1,0.4 °C,CCN1/C(=C/C(C)=O)Sc2ccc(OC)cc21
2,2.7 °C,O=C1NC(=O)c2c1c1c3ccccc3[nH]c1n1cncc21 [ISOGRANULATIMIDE]
3,4.9 °C,NS(=O)(=O)c1ccc(Nc2nc(OCC3CCCCC3)c3nc[nH]c3n2)cc1

# Biological target: Cyclin-dependent kinase-like 1 (Homo sapiens) (UniProt Q00532)
# Sequence (Q00532 whole entry): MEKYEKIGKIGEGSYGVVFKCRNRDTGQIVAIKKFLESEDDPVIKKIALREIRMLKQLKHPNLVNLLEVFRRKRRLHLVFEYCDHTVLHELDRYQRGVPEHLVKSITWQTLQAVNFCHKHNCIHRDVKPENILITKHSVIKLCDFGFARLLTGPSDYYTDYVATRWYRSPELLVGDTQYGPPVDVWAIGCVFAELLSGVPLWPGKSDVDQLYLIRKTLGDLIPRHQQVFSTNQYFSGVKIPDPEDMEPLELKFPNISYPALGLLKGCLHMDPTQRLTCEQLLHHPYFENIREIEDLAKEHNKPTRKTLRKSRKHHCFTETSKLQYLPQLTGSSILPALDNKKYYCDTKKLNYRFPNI
row,ΔTm,SMILES
1,0.4 °C,CCN1/C(=C/C(C)=O)Sc2ccc(OC)cc21
2,3.7 °C,O=C1NC(=O)c2c1c1c3ccccc3[nH]c1n1cncc21 [ISOGRANULATIMIDE]
3,0.6 °C,NS(=O)(=O)c1ccc(Nc2nc(OCC3CCCCC3)c3nc[nH]c3n2)cc1

# Biological target: Serine/threonine-protein kinase Chk2 (Homo sapiens, UniProt O96017)
row,ΔTm,SMILES
1,0.1 °C,CCN1/C(=C/C(C)=O)Sc2ccc(OC)cc21
2,6.6 °C,O=C1NC(=O)c2c1c1c3ccccc3[nH]c1n1cncc21 [ISOGRANULATIMIDE]
3,2.5 °C,NS(=O)(=O)c1ccc(Nc2nc(OCC3CCCCC3)c3nc[nH]c3n2)cc1

# Biological target: Dual specificity protein kinase CLK1 (Homo sapiens) (UniProt P49759)
row,ΔTm,SMILES
1,4.5 °C,O=C1NC(=O)c2c1c1c3ccccc3[nH]c1n1cncc21 [ISOGRANULATIMIDE]
2,3.9 °C,NS(=O)(=O)c1ccc(Nc2nc(OCC3CCCCC3)c3nc[nH]c3n2)cc1

# Biological target: Glycogen synthase kinase-3 beta (Homo sapiens, UniProt P49841)
# Sequence (P49841 whole entry, looked up): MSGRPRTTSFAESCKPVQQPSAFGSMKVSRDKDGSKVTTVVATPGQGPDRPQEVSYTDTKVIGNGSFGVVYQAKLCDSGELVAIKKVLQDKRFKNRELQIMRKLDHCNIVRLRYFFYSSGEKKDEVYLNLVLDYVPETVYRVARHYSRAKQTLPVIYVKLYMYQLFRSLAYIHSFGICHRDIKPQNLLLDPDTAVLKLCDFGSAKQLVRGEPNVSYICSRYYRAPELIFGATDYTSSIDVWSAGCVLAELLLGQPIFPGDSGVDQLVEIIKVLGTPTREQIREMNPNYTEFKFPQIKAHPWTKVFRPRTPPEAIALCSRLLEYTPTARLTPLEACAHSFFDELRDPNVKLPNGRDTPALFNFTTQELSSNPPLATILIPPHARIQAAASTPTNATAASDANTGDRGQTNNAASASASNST
row,ΔTm,SMILES
1,1.4 °C,CCN1/C(=C/C(C)=O)Sc2ccc(OC)cc21
2,8.8 °C,O=C1NC(=O)c2c1c1c3ccccc3[nH]c1n1cncc21 [ISOGRANULATIMIDE]
3,4.3 °C,NS(=O)(=O)c1ccc(Nc2nc(OCC3CCCCC3)c3nc[nH]c3n2)cc1

# Biological target: Mitogen-activated protein kinase 11 (Homo sapiens, UniProt Q15759)
row,ΔTm,SMILES
1,-0.1 °C,CCN1/C(=C/C(C)=O)Sc2ccc(OC)cc21
2,2 °C,O=C1NC(=O)c2c1c1c3ccccc3[nH]c1n1cncc21 [ISOGRANULATIMIDE]
3,0.6 °C,NS(=O)(=O)c1ccc(Nc2nc(OCC3CCCCC3)c3nc[nH]c3n2)cc1

# Biological target: T1, Serine/threonine-protein kinase Nek2 (Homo sapiens) (UniProt P51955)
# T1 sequence (whole entry): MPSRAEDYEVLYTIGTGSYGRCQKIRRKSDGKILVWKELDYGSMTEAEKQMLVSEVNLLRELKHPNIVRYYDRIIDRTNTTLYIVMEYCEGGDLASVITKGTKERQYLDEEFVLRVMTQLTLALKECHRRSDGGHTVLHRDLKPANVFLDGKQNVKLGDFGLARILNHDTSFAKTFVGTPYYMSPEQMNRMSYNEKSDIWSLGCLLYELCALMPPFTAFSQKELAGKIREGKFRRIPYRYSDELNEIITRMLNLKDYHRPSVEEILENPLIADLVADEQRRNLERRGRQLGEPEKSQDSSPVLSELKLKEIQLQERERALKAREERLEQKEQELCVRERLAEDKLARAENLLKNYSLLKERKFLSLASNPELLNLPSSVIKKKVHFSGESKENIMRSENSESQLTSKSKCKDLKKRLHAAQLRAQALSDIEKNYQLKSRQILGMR
row,ΔTm,SMILES
1,0.8 °C,CCN1/C(=C/C(C)=O)Sc2ccc(OC)cc21
2,2.4 °C,O=C1NC(=O)c2c1c1c3ccccc3[nH]c1n1cncc21 [ISOGRANULATIMIDE]
3,4.9 °C,NS(=O)(=O)c1ccc(Nc2nc(OCC3CCCCC3)c3nc[nH]c3n2)cc1

# Biological target: Serine/threonine-protein kinase PAK 5 (Homo sapiens) (UniProt Q9P286)
# Sequence (Q9P286 whole entry, looked up): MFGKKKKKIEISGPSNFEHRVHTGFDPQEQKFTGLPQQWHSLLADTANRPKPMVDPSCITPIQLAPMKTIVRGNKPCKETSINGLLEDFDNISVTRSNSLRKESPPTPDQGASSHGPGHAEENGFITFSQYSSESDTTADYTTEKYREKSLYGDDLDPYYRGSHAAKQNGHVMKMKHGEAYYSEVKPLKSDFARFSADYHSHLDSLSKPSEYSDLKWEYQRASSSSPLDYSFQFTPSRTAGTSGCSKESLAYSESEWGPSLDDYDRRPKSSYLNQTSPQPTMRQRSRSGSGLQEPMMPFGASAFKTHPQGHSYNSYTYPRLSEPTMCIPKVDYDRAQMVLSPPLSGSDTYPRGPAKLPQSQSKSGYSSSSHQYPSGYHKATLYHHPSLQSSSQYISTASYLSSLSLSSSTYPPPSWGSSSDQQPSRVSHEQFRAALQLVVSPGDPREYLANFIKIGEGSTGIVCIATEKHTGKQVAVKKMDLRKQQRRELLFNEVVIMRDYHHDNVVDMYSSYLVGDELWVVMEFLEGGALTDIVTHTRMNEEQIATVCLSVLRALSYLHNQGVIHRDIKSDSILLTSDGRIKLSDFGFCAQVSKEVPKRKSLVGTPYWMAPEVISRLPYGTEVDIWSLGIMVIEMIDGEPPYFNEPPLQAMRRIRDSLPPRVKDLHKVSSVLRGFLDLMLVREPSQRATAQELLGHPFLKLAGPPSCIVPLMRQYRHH
row,ΔTm,SMILES
1,0 °C,CCN1/C(=C/C(C)=O)Sc2ccc(OC)cc21
2,1.3 °C,O=C1NC(=O)c2c1c1c3ccccc3[nH]c1n1cncc21 [ISOGRANULATIMIDE]
3,2.7 °C,NS(=O)(=O)c1ccc(Nc2nc(OCC3CCCCC3)c3nc[nH]c3n2)cc1

# Biological target: T2, 3-phosphoinositide-dependent protein kinase 1 (Homo sapiens) (UniProt O15530)
# T2 sequence (whole entry): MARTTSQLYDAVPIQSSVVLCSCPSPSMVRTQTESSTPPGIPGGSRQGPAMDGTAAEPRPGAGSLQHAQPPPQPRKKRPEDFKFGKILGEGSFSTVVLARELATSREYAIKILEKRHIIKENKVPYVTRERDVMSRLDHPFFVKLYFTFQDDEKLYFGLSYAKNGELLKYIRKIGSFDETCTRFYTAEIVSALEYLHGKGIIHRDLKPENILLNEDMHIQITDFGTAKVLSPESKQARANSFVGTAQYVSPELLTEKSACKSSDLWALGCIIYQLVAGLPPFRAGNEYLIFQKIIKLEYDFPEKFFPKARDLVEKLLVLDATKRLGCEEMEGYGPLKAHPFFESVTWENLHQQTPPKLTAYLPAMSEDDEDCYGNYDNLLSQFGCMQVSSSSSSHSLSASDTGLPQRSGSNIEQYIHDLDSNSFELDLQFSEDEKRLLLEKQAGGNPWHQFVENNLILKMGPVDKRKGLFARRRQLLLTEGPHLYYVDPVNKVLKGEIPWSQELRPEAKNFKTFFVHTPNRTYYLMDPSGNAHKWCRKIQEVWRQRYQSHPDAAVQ
row,ΔTm,SMILES
1,0.2 °C,CCN1/C(=C/C(C)=O)Sc2ccc(OC)cc21
2,1.9 °C,O=C1NC(=O)c2c1c1c3ccccc3[nH]c1n1cncc21 [ISOGRANULATIMIDE]
3,-0.1 °C,NS(=O)(=O)c1ccc(Nc2nc(OCC3CCCCC3)c3nc[nH]c3n2)cc1

# Biological target: Serine/threonine-protein kinase pim-1 (Homo sapiens) (UniProt P11309)
# Sequence (P11309 whole entry, looked up): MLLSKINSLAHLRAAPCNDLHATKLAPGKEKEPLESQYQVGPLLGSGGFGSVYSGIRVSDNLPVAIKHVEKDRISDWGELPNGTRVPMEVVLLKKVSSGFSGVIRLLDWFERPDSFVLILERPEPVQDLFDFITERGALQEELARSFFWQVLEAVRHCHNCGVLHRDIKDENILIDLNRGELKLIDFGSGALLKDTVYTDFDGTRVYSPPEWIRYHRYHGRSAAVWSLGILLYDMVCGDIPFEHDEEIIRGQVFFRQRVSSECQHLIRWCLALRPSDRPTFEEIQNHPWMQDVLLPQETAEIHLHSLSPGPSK
row,ΔTm,SMILES
1,6.3 °C,CCN1/C(=C/C(C)=O)Sc2ccc(OC)cc21
2,9 °C,O=C1NC(=O)c2c1c1c3ccccc3[nH]c1n1cncc21 [ISOGRANULATIMIDE]
3,0.4 °C,NS(=O)(=O)c1ccc(Nc2nc(OCC3CCCCC3)c3nc[nH]c3n2)cc1

# Biological target: T3, Serine/threonine-protein kinase PLK4 (Homo sapiens) (UniProt O00444)
# T3 sequence (whole entry): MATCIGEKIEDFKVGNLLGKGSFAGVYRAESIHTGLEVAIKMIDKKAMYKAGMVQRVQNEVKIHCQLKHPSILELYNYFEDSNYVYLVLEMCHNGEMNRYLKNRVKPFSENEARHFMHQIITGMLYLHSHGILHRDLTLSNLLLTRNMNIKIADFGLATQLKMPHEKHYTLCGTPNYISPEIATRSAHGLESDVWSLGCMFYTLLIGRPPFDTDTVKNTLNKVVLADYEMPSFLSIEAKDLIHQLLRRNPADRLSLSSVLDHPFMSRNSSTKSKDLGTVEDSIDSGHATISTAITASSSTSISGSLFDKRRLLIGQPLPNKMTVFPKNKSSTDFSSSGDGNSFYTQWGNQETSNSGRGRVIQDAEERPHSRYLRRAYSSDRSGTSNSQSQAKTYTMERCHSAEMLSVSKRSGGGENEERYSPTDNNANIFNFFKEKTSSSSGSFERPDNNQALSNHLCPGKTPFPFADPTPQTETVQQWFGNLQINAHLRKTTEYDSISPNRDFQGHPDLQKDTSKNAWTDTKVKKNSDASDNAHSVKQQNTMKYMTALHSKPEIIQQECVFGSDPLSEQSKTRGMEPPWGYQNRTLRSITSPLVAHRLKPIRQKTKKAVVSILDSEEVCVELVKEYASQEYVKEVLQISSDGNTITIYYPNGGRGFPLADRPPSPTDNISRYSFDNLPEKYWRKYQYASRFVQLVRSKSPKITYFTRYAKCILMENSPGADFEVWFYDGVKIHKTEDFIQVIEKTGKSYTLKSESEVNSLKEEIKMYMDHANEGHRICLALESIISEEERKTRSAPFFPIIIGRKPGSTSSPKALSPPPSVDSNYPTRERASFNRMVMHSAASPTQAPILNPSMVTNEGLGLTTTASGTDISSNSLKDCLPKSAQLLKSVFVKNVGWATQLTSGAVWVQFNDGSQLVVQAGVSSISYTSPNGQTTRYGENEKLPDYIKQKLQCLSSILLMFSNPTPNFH
row,ΔTm,SMILES
1,-0.2 °C,CCN1/C(=C/C(C)=O)Sc2ccc(OC)cc21
2,3.2 °C,O=C1NC(=O)c2c1c1c3ccccc3[nH]c1n1cncc21 [ISOGRANULATIMIDE]
3,1.1 °C,NS(=O)(=O)c1ccc(Nc2nc(OCC3CCCCC3)c3nc[nH]c3n2)cc1

# Biological target: Ribosomal protein S6 kinase alpha-3 (Homo sapiens) (UniProt P51812)
# Sequence (P51812 whole entry): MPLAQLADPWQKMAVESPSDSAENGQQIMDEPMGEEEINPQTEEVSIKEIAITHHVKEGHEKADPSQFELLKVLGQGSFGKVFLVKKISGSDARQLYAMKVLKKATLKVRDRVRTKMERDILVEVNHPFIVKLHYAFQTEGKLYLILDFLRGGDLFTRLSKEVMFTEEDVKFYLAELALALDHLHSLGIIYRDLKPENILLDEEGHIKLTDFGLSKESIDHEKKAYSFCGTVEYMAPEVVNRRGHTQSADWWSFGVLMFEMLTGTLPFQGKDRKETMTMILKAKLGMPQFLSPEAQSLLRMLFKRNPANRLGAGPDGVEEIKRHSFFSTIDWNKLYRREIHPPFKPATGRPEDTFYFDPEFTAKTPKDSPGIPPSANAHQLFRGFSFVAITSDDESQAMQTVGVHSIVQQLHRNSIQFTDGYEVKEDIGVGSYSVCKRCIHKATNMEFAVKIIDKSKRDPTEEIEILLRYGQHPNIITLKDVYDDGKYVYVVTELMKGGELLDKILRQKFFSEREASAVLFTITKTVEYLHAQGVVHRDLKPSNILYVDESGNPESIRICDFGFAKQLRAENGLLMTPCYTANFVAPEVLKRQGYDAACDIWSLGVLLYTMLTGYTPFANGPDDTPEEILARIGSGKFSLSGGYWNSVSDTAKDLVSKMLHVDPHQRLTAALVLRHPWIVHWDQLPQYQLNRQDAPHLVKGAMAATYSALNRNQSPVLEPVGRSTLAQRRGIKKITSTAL
row,ΔTm,SMILES
1,-0.6 °C,CCN1/C(=C/C(C)=O)Sc2ccc(OC)cc21
2,2.5 °C,O=C1NC(=O)c2c1c1c3ccccc3[nH]c1n1cncc21 [ISOGRANULATIMIDE]
3,1.4 °C,NS(=O)(=O)c1ccc(Nc2nc(OCC3CCCCC3)c3nc[nH]c3n2)cc1

# Biological target: STE20-like serine/threonine-protein kinase (Homo sapiens) (UniProt Q9H2G2)
# Sequence (Q9H2G2 whole entry, looked up): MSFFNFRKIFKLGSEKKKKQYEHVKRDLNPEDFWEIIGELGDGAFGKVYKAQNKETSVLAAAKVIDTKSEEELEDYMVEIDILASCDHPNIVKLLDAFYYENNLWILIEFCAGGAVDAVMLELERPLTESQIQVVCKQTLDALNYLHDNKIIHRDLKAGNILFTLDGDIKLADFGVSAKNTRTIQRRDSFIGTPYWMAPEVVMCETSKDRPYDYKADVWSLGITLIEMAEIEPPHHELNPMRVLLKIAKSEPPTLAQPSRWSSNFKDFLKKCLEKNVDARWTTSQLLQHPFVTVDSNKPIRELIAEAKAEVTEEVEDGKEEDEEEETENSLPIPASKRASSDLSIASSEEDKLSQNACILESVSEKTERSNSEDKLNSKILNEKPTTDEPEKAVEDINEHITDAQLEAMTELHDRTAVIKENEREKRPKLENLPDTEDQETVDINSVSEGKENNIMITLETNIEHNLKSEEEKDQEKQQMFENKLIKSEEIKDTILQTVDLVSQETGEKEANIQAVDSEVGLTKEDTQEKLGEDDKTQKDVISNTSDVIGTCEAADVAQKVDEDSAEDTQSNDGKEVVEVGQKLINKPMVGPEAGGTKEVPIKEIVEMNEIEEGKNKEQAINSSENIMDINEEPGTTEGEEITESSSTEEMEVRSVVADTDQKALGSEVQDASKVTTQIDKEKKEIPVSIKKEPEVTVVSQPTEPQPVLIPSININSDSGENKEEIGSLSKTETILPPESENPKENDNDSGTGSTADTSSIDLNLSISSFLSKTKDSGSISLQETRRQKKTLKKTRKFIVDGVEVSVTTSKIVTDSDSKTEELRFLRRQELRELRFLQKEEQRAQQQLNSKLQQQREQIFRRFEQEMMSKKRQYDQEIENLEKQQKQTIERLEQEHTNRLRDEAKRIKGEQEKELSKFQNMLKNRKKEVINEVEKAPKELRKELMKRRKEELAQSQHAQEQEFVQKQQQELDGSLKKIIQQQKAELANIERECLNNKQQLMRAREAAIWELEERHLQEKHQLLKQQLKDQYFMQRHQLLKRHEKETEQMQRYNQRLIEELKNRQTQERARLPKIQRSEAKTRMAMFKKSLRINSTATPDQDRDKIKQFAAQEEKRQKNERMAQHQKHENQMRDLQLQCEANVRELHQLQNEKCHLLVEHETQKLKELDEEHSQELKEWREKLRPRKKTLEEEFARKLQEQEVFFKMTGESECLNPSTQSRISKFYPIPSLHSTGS
row,ΔTm,SMILES
1,0.7 °C,CCN1/C(=C/C(C)=O)Sc2ccc(OC)cc21
2,2.1 °C,O=C1NC(=O)c2c1c1c3ccccc3[nH]c1n1cncc21 [ISOGRANULATIMIDE]
3,2.2 °C,NS(=O)(=O)c1ccc(Nc2nc(OCC3CCCCC3)c3nc[nH]c3n2)cc1

# Biological target: Serine/threonine-protein kinase 26 (Homo sapiens) (UniProt Q9P289)
# Sequence (Q9P289 2-416 limits assumed): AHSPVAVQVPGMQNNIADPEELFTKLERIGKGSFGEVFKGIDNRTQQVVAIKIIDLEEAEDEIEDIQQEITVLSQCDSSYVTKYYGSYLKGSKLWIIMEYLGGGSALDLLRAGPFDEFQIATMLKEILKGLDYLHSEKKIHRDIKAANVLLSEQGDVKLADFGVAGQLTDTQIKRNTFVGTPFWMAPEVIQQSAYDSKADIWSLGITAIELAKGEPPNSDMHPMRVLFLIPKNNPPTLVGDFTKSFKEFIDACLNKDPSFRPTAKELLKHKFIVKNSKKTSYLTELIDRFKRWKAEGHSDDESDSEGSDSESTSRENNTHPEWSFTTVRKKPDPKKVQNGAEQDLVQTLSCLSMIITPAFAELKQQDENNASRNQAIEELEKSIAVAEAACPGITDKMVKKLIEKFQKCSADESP
row,ΔTm,SMILES
1,0.7 °C,CCN1/C(=C/C(C)=O)Sc2ccc(OC)cc21
2,5.4 °C,O=C1NC(=O)c2c1c1c3ccccc3[nH]c1n1cncc21 [ISOGRANULATIMIDE]
3,5.7 °C,NS(=O)(=O)c1ccc(Nc2nc(OCC3CCCCC3)c3nc[nH]c3n2)cc1
